Laboratory results taken from patent US10294230B2, “3,3-difluoropiperidine carbamate heterocyclic compounds as NR2B NMDA receptor antagonists” (Rugen Holdings (Cayman) Limited, priority 2015, dated 2019).
pKi: −log10 of the molar value.

How the values were obtained:
NMDA receptor = assay: [3H] MK-801 radioligand binding, rat brain membranes; conditions: 2 nM [3H] MK-801
Procedure: (§1) This example describes NMDA receptor binding assays using two different radioligands, [^3H] […] An established binding assay using the non-selective NMDA receptor ligand [^3H] […] The binding assay method using the NR2B selective receptor ligand [^3H] […] This assay serves as a selective measure of NR2B receptor binding activity in native rat brain receptors. Briefly, the brains of Male Wistar rats were homogenized (Polytron) before centrifugation at 40,000×g for 15 minutes at 4° C. After 2 washes, the final pellet was homogenized and stored at −80° C. The protein concentration was determined by Bradford assay.
(§2) Test compounds were solubilized at 10 mM in DMSO. Then the dilutions were performed with a constant solvent concentration (1% DMSO) in the assay.
(§3) After incubation for 4.5 h at room temperature, the assays were filtered on GF/B filters pretreated with 0.3% (v/v) PEI with a Brandel system for [^3H] […] The experiment was performed in duplicate (n=2).

NR2B receptor = NR2B receptor (Rattus norvegicus (Rat), UniProt P35439+Q00960); assay: [3H] (E)-N1-(2-methoxybenzyl)-cinnamidine radioligand binding, rat brain membranes
Procedure: as §1
[^3H] […] Thus, using [^3H]
as §2, §3

CYP2D6 = CYP2D6 (Homo sapiens (Human), UniProt P10635); assay: CYP P450 enzyme inhibition, pooled human liver microsome; type: in vitro ADME; conditions: 10 μM, pooled HLM, dextromethorphan 5 μM
Procedure: Those CYP isoforms and their corresponding probe substrates are as follows: CYP1A2 (phenacetin, 30 μM), CYP2C9 (tolutamide, 100 μM), CYP2C19 (S-mephenytoin, 40 μM), CYP2D6 (dextromethorphan, 5 μM) and CYP3A4 (midazolam, 1 μM). All probe substrates were used at concentrations near or below their Kms. For experiment, a reaction mixture of test compound at 10 μM or in serial dilution, CYP probe substrate described above and 0.2 mg/mL pooled HLM in phosphate buffer, pH 7.4 in a final volume of 200 μL was pre-incubated at 37° C. for 10 minutes in triplicate. The reaction was initiated by addition of NADPH at final concentration of 1 mM. The reaction was terminated after 10 minutes (CYP1A2, CYP2D6 and CYP3A4) or 30 minutes (CYP2C9 and CYP2C19) by addition of 100 μL ice-cold acetonitrile with internal standard (IS). The samples were then centrifuged at 13,000 rpm and the supernatants were injected to LC-MS/MS (Agilent Technologies) to quantify the concentration of the specific metabolites of the probe substrates formed by individual CYP450 isoforms. The inhibition ratio is calculated as: (Mt−M0)/Mwater×100% in which Mt and M0 represent the concentrations of the specific probe substrate metabolite, which was formed by individual CYP450 isoform, at the beginning and end of the reaction in the presence of test compound; while Mwater represents the concentration of the specific metabolite at the end of the reaction in the absence of test compound. Test compound concentration-dependent response data experiments performed in triplicate.

[1] = tested on: electroconvulsive threshold (tonic convulsions); assay: Electroconvulsive Threshold Test (ECT); type: in vivo, rats; conditions: rats, 3, 10 and 30 mpk p.o., mesylate salt
Procedure: Test compound E1-8.2 was administered as the free base.
Rats were administered ECS (rectangular current: 0.6 ms pulse width, 1.5 s duration, 200 Hz) via earclip electrodes connected to a constant current shock generator (Ugo Basile: type 7801). Test compounds were administered by oral gavage (p.o.) 1 hour before the test at a dose volume of 5 mL/kg.
Treatment groups of 20 rats were exposed to ECS as follows: The first animal was exposed to 30 mA of ECS. […] (increases of 5 mA) until the first tonic convulsion was observed. Once the first tonic convulsion was observed, the intensity of ECS was decreased by 2 mA for the next animal and then decreased or increased by 2 mA from animal to animal depending on whether the previous animal convulsed or not. If the first animal did convulse (tonic convulsions) within 5 seconds, animal no2 is exposed to 25 mA, etc. . . . (decreases of 5 mA) until the absence of tonic convulsions was observed. At this point, the intensity of ECS was increased by 2 mA for the next animal and then decreased or increased by 2 mA from animal to animal depending on whether the previous animal convulsed or not. The minimum current intensity applied is 5 mA and the maximum 95 mA. The first 5 animals serve to approach threshold current and were not included in the analysis. The results are presented as the mean current intensity administered to the final 15 animals of a group. The test was performed blind. A positive percent change indicates an anticonvulsant effect. A negative percent change indicates a proconvulsant effect. The test substance was evaluated at 4 doses, typically using 0.5% dimethylsulfoxide, 4% hydroxypropyl-b-cyclodextrin water as a vehicle, and administered p.o. 60 minutes before ECS, and compared with a vehicle control group. Diazepam (16 mg/kg p.o.), administered under the same experimental conditions, was used as reference substance. The experiment included 6 groups. Data with the test substance was analyzed by comparing treated groups with vehicle control using one-way ANOVA followed by Dunnett's t tests.

[2] = tested on: pentylenetetrazole (PTZ) induced convulsions; assay: Pentylenetetrazole (PTZ) Seizure Test; type: in vivo; conditions: 10 mg/kg p.o., mesylate salt
Procedure: Rats, placed in individual macrolon cages (25×19×13 cm), were injected with pentylenetetrazole (PTZ) (100 mg/kg s.c.). The occurrence and latency of clonic and tonic convulsions and death were noted over a 30 minute period. 15 rats were studied per group. The test was performed blind. […]
Compounds were evaluated typically using 0.5% dimethylsulfoxide, 4% hydroxypropyl-b-cyclodextrin water as a vehicle at 1 or more doses (e.g., 1, 3 and 10 mg/kg), administered p.o. 30 minutes before PTZ, and compared with a vehicle control group. Diazepam (16 mg/kg p.o.), administered 60 minutes before PTZ, was used as reference substance. The experiment was performed over 2 separate sub-experiments with N=7 to 8 animals per group and per sub-experiment. Quantitative data (latencies) with the test substance was analyzed by comparing treated groups with vehicle control using Kruskal-Wallis test followed by Mann-Whitney U test. Quantitative data with the reference substance was analyzed using Mann-Whitney U test. Quantal data (frequencies) was analyzed by comparing treated groups with vehicle control using Fisher's Exact Probability tests (*=p<0.05; **=p<0.01; ***=p<0.001).

[3] = tested on: haloperidol-induced catalepsy; assay: Haloperidol-Induced Catalepsy (HIC) Model; type: in vivo; conditions: rats
Text: The Haloperidol-induced Catalepsy (HIC) model detects antipsychotic activity and the action of NR2B selective antagonists (Steece-Collier et al. Exp. Neurol. 163: 239, 2000) and was based on methods described by Chermat and Simon (J. Pharmacol., 6, 493-496, 1975). The capacity to induce catalepsy serves as an index of the liability of a test substance to induce extrapyramidal side-effects, in particular Parkinsonism. Antagonism of antipsychotic-induced catalepsy can thus serve to detect anti-Parkinson potential.
Rats were injected with haloperidol (1 mg/kg i.p.) and were examined for catalepsy at 30 minute intervals up to 360 minutes. Presence (+) or absence (−) of catalepsy was assessed by three procedures: 1) imposed crossing of the ipsilateral fore- and hind-limbs; 2) placing the animal in the Buddha position; 3) the tilting board, an automatic device that, 5 seconds after positioning the rat, displaces the rat from a horizontal to vertical position and back while it clings to a wire grid with its front paws. Akinesia and catalepsy were assessed depending on whether or not the animal moves before (akinesia) or during operation of the board (catalepsy).
The 4 scores were cumulated over time to give a global catalepsy score per animal. Six rats were studied per group. The test was performed blind (test substances versus vehicle). Test substances were evaluated at 1 or more doses, administered typically using 0.5% dimethylsulfoxide, 4% hydroxypropyl-b-cyclodextrin water as a vehicle p.o. 15 minutes before haloperidol (i.e. 45 minutes before the first measurement), and compared with a vehicle control group.
Amphetamine (8 mg/kg p.o.), administered 60 minutes before the test (i.e. 90 minutes before the first measurement), was used as reference substance. Data with the test substances were analyzed by comparing treated groups with vehicle control using Kruskal-Wallis Test followed by Mann-Whitney U tests at each time and for cumulated score. Data with the reference substance were analyzed using Mann-Whitney U tests.

NR2B receptor, sequence (Q00960 27-1482, other chains not shown): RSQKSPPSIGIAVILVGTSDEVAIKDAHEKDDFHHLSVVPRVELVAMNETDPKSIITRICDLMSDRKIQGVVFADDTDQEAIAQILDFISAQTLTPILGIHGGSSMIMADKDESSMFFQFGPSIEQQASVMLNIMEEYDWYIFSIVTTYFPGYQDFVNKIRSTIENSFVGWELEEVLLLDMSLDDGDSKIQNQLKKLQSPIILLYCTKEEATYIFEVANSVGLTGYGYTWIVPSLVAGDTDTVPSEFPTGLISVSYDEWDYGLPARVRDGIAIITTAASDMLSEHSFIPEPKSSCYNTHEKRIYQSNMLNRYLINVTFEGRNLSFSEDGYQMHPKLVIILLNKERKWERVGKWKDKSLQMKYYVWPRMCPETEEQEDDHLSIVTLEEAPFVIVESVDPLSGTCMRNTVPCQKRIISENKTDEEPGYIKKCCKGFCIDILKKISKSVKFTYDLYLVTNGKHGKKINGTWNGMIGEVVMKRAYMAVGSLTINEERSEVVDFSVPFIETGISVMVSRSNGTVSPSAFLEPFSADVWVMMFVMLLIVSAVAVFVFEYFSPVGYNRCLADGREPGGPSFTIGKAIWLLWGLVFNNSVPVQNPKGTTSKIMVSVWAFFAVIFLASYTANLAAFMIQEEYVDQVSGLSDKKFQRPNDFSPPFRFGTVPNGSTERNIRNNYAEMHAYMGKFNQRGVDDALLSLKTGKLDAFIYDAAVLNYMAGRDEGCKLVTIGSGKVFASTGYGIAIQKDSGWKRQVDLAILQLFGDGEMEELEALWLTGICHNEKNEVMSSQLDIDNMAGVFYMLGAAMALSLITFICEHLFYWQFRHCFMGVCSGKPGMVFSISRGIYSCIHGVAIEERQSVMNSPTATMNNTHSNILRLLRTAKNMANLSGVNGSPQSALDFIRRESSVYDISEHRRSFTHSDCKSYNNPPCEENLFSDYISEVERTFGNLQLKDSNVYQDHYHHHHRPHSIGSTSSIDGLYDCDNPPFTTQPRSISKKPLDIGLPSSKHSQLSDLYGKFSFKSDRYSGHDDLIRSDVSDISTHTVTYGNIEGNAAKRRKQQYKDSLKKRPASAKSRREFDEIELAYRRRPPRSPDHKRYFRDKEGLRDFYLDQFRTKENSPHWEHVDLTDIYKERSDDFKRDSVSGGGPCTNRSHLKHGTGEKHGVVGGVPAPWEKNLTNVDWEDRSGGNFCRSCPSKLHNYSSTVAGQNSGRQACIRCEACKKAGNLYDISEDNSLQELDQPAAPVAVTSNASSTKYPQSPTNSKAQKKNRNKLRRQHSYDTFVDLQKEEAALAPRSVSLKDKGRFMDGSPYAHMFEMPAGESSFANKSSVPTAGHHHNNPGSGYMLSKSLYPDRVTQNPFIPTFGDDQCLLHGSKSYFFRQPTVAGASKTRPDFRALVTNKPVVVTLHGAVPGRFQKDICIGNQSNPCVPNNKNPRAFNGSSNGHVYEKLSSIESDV
CYP2D6, sequence (P10635 whole entry): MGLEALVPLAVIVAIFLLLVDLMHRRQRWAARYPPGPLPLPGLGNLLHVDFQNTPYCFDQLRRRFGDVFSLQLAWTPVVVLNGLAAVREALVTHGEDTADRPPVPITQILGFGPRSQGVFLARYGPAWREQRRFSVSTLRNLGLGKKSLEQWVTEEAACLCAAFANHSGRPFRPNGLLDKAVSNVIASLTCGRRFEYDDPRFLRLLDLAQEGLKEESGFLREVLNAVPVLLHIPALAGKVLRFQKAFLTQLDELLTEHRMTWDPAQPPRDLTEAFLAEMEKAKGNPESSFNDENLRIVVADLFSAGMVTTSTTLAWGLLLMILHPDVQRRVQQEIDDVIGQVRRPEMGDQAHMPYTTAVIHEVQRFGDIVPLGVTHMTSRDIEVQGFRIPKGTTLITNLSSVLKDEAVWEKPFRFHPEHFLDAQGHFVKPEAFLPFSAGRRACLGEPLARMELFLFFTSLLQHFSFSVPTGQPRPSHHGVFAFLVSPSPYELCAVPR

With `Cc1ccc(COC(=O)N2CC[C@H](CNc3nccn4cnnc34)C(F)(F)C2)cc1` [Compound E1-1.2, (+)-R-4-methylbenzyl 4-(([1,2,4]triazolo[4,3-a]pyrazin-8-ylamino)methyl)-3,3-difluoropiperidine-1-carboxylate] the “partial effect on [3H] MK-801 binding” value (NMDA receptor) was 40%, the “displacement of [3H] (E)-N1-(2-methoxybenzyl)-cinnamidine at the NR2B receptor high affinity site” value (NR2B receptor; rat brain membranes) was 96% and the pKi (NR2B receptor; read-out: Ki at the NR2B receptor high affinity site) was 8.28. The “CYP2D6 @ 10 μM (%)” value (CYP2D6) was 14%, the “electroconvulsive threshold, pro-/anticonvulsant activity” value [1] was “robust anticonvulsant activity” and the “number of rats showing tonic convulsions, change vs vehicle controls” value [2] was −82%. For the same molecule, the “latency to clonic convulsions, change vs vehicle controls” value ([2]; rats) was “+72%”, the “latency to death, change vs vehicle controls” value ([2]; rats) was “+35%” and the “latency to tonic convulsions, change vs vehicle controls” value ([2]; rats) was “+39%”. The “number of deaths, change vs vehicle controls” value ([2]; rats) was −91%, the “cumulated score of catalepsy over 360 mins” value ([3]; 1 mg/kg p.o.) was 17.0 and the “cumulated score of catalepsy over 360 mins” value ([3]; 3 mg/kg p.o.) was 15.8. The “cumulated score of catalepsy over 360 mins” value ([3]; p.o., dose not printed in the sentence (other doses 1 and 3 mg/kg)) was 2.0.
